Measured values from ChEMBL document CHEMBL1154299, “Human liver microsomal metabolism of (+)-discodermolide” (J Nat Prod, 2009).

Assays:
Format in all cases: ADME
Liver microsomes [1] = assay: Metabolic stability in human liver microsome at 10 uM in the presence of NADPH assessed as level of metabolites after 1 mins by LC-MS analysis
Liver microsomes [2] = assay: Metabolic stability in heat inactivated human liver microsome at 10 uM after 15 mins in the presence of NADPH by LC-MS analysis; settings: 0.25 h
Liver microsomes [3] = assay: Metabolic stability in human liver microsome at 10 uM in the presence of NADPH assessed as level of metabolites after 5 mins by LC-MS analysis
Liver microsomes [4] = assay: Metabolic stability in human liver microsome at 10 uM after 15 mins in the absence of NADPH by LC-MS analysis; settings: 0.25 h

With `C=C/C=C\[C@H](C)[C@H](OC(N)=O)[C@@H](C)[C@H](O)[C@@H](C)C/C(C)=C\[C@H](C)[C@@H](O)[C@@H](C)/C=C\[C@@H](O)C[C@@H]1OC(=O)[C@H](C)[C@@H](O)[C@H]1C` [DISERMOLIDE] the Stability (Liver microsomes [1]) was “Unstable”, the Stability (Liver microsomes [2]) was “Stable” and the Stability (Liver microsomes [3]) was “Unstable”. The Stability (Liver microsomes [4]) was “Stable”.
